From US10112933B2, “Methods and compositions for treatment of fibrosis” (Baylor College of Medicine, priority 2013, dated 2018)

Tested on: breast cancer cell lines (MDA-MB-468, MDA-MB-231, MBA-MD-435, MCF7, MDA-MB-453)
Test: Breast cancer cell line apoptosis assay (nucleosome ELISA)
Type: cell-based, human
Protocol: Breast cancer cell line apoptosis assay. Human breast carcinoma cell lines MDA-MB-468, MDA-MB-231, MBA-MD-435 and MCF7 were kindly provided by Dr. Powel H. Brown (Breast Cancer Center, Baylor College of Medicine). Breast cancer cell line, MDA-MB-453 was kindly provided by Dr. Shou Jiang (Breast Cancer Center, Baylor College of Medicine). All cell lines were grown in DMEM medium supplemented with 10% fetal bovine serum (FBS), 25,000 units penicillin G, 25,000 ug streptomycin, and 131.4 mg L-Glutamine and cultured in the incubator under the condition of 95% air, 5% CO2 at 37° C. (Garcia et al., 2001). Cells were seeded at 2,500 cells/cm^2 into 12-well plates. At 80% confluency, cells were washed with PBS and supplemented with fresh medium containing compound or the topoisomerase I-inhibitor, camptothecin, at 0, 0.1, 03, 1, 3, 10, 30, 100, 300 μM. At 24 hours, treatment was terminated by removing the medium from each well. Cells were lysed with cell lysis buffer ([…] for 30 minutes at 25° C.). Cell lysate (200 μl) was centrifuged at 200×g for 10 minutes and […] of each supernatant was assayed for nucleosomes using the Cell Death Detection ELISA (Roche Applied Science) as described by the manufacturer. The percent maximum nucleosome level was calculated by dividing the nucleosome level by the maximum nucleosome level achieved in the assay and multiplying by 100. This value was plotted as a function of the log compound concentration and the best-fitting curve generated using 4-Parameter Logistic Model/Dose Response/XLfit 4.2, IDBS software.

SMILES: O=C(O)c1ccc(C=CC(=O)c2ccc3c(c2)OCCO3)cc1 [Cpd3, 4-[3-(2,3-dihydro-1,4-benzodioxin-6-yl)-3-oxo-1-propen-1-yl]benzoic acid]
- apoptosis of breast cancer cell lines with constitutive Stat3 activation: induced apoptosis preferentially
